The record followed here is patent publication US8748417B2, “Amino-pyrrolidine-azetidine diamides as monoacylglycerol lipase inhibitors” (Janssen Pharmaceutica, NV, priority 2010, dated 2014).

The target of experiment [1] is T1, purified wild type MGL (wt-MGLL 6H-11-313) (Homo sapiens, UniProt Q99685).
T1 construct: purified wild type MGL (wt-MGLL 6H-11-313)
T1 sequence (Q99685 1-303): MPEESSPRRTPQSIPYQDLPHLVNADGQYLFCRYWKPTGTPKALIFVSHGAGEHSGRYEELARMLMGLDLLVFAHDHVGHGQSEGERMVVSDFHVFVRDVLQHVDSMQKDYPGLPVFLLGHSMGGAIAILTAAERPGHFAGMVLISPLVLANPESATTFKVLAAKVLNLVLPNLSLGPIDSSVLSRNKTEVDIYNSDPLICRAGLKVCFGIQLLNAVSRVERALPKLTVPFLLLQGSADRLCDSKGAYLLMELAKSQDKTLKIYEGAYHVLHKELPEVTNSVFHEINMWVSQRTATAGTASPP
Put plainly: MGL enzyme activity assay (4MU-B cleavage), wild type MGL. The note with it: wild type MGL 5 nM, 4MU-B 10 μM, 37° C.; read-out: MGL wild type inh IC50. The class given is biochemical. As to the method: All rate-based assays were performed in black 384-well polypropylene PCR microplates (Abgene) in a total volume of 30 μL. Substrate 4-methylumbelliferyl butyrate (4MU-B; Sigma) and either purified mutant MGL (mut-MGLL 11-313 L179S L186S) or purified wild type MGL (wt-MGLL 6H-11-313) were diluted separately into 20 mM PIPES buffer (pH=7.0), containing 150 mM NaCl and 0.001% Tween 20. Compounds of Formula (I) were pre-dispensed (50 nL) into the assay plate using a Cartesian Hummingbird prior to adding 4MU-B (25 μL of 1.2× solution to a final concentration of 10 μM) followed by enzyme (5 μL of a 6× solution to a final concentration of 5 nM) to initiate the reaction. Final compound concentrations ranged from 17 to 0.0003 μM. The fluorescence change due to 4MU-B cleavage was monitored with excitation and emission wavelengths of 335 and 440 nm, respectively, and a bandwidth of 10 nm (Safire^2, Tecan) at 37° C. for 5 min.
The IC50 values for the following compounds were determined using Microsoft Office Excel from a fit of the equation to the concentration-response plot of the fractional activity as a function of inhibitor concentration.

The subject of experiment [2] is MGL (rat brain homogenate). Put plainly: 2-AG accumulation assay in rat brain homogenate. In kind it is biochemical. The note with it: compound 1 μM, percent of vehicle 2-AG accumulation. As for the experimental part:
After a 15-min incubation time at 37° C., CaCl2 (final concentration=10 mM) was added and then incubated for 15 min at 37° C. in a total volume of 5 mL. The reactions were stopped with 6 mL organic solvent extraction solution of 2:1 chloroform/methanol. Accumulated 2-AG in the organic phase was measured by a HPLC/MS method, according to the following equation: percent vehicle=(2-AG accumulation in the presence of compound/2-AG accumulation in vehicle)×100.

Structures are written as SMILES.

Consider `Cc1c(C(=O)N2CC(N[C@H]3CCN(C(=O)c4cscn4)C3)C2)sc2ccc(Cl)cc12` [Cpd 85, (3S)-N-{1-[(5-Chloro-3-methyl-1-benzothiophen-2-yl)carbonyl]azetidin-3-yl}-1-(1,3-thiazol-4-ylcarbonyl)pyrrolidin-3-amine], for which the IC50 in experiment [1] came out at 48.2 nM. The “Rat Brain 2AG % VehCntrl (%) @1 μM” value in experiment [2] came to 335%.

Take `Cc1c(C(=O)N2CC(N[C@H]3CCN(C(=O)c4nccs4)C3)C2)sc2cc(F)ccc12` [Cpd 87, (3S)-N-{1-[(6-Fluoro-3-methyl-1-benzothiophen-2-yl)carbonyl]azetidin-3-yl}-1-(1,3-thiazol-2-ylcarbonyl)pyrrolidin-3-amine]: in experiment [1], the IC50 worked out at 34.1 nM. The “Rat Brain 2AG % VehCntrl (%) @1 μM” value in experiment [2] came to 385%.

In the case of `Cc1c(C(=O)N2CC(N[C@H]3CCN(C(=O)c4nccs4)C3)C2)sc2ccc(-c3cccc(C(F)(F)F)c3)cc12` [Cpd 90, (3S)-N-[1-({3-Methyl-5-[3-(trifluoromethyl)phenyl]-1-benzothiophen-2-yl}carbonyl)azetidin-3-yl]-1-(1,3-thiazol-2-ylcarbonyl)pyrrolidin-3-amine], in experiment [1], the IC50 is under 5 nM. In addition, the “Rat Brain 2AG % VehCntrl (%) @1 μM” value in experiment [2] is 1130%.

In the case of `Cc1c(C(=O)N2CC(N[C@H]3CCN(C(=O)c4nccs4)C3)C2)sc2ccc(-c3ccccc3)cc12` [Cpd 92, (3S)-N-{1-[(3-Methyl-5-phenyl-1-benzothiophen-2-yl)carbonyl]azetidin-3-yl}-1-(1,3-thiazol-2-ylcarbonyl)pyrrolidin-3-amine], the IC50 in experiment [1] is under 5 nM. The “Rat Brain 2AG % VehCntrl (%) @1 μM” value in experiment [2] is on record as 624%.

`Cc1c(C(=O)N2CC(N[C@H]3CCN(C(=O)c4ccccc4)C3)C2)sc2ccc(-c3cccc(F)c3)cc12` [Cpd 93, (3S)-N-(1-{[5-(3-Fluorophenyl)-3-methyl-1-benzothiophen-2-yl]carbonyl}azetidin-3-yl)-1-(phenylcarbonyl)pyrrolidin-3-amine]: the IC50 in experiment [1] was under 5 nM. Moreover, the “Rat Brain 2AG % VehCntrl (%) @1 μM” value in experiment [2] is listed as 963%.

Turning to `Cc1c(C(=O)N2CC(N[C@H]3CCN(C(=O)c4ccccc4)C3)C2)sc2ccc(-c3ccc(F)cc3)cc12` [Cpd 94, (3S)-N-(1-{[5-(4-Fluorophenyl)-3-methyl-1-benzothiophen-2-yl]carbonyl}azetidin-3-yl)-1-(phenylcarbonyl)pyrrolidin-3-amine], the IC50 in experiment [1] is under 5 nM. Also, the “Rat Brain 2AG % VehCntrl (%) @1 μM” value in experiment [2] is 445%.

In the case of `O=C(c1cc2ccc(-c3cccc(C(F)(F)F)c3)cc2s1)N1CC(N[C@H]2CCN(C(=O)c3nccs3)C2)C1` [Cpd 99, (3S)-1-(1,3-Thiazol-2-ylcarbonyl)-N-[1-({6-[3-(trifluoromethyl)phenyl]-1-benzothiophen-2-yl}carbonyl)azetidin-3-yl]pyrrolidin-3-amine], the IC50 in experiment [1] was under 5 nM. Besides, the “Rat Brain 2AG % VehCntrl (%) @1 μM” value in experiment [2] amounted to 644%.

Consider `O=C(c1cscn1)N1CC[C@H](NC2CN(C(=O)c3cc4ccc(-c5cccc(C(F)(F)F)c5)cc4s3)C2)C1` [Cpd 100, (3S)-1-(1,3-Thiazol-4-ylcarbonyl)-N-[1-({6-[3-(trifluoromethyl)phenyl]-1-benzothiophen-2-yl}carbonyl)azetidin-3-yl]pyrrolidin-3-amine], for which the IC50 in experiment [1] was under 5 nM. Also, the “Rat Brain 2AG % VehCntrl (%) @1 μM” value in experiment [2] was found to be 546%.

For `O=C(c1ccc2c(-c3ccc(C(F)(F)F)cc3)c[nH]c2c1)N1CC(N[C@H]2CCN(C(=O)c3ccccc3)C2)C1` [Cpd 101, (3S)-1-(Phenylcarbonyl)-N-[1-({3-[4-(trifluoromethyl)phenyl]-1H-indol-6-yl}carbonyl)azetidin-3-yl]pyrrolidin-3-amine], the IC50 in experiment [1] amounted to 44 nM. Further, in experiment [2], the “Rat Brain 2AG % VehCntrl (%) @1 μM” value is 141%.

For `O=C(c1ccc2c(-c3ccc(C(F)(F)F)cc3)c[nH]c2c1)N1CC(N[C@H]2CCN(C(=O)c3nccs3)C2)C1` [Cpd 104, (3S)-1-(1,3-Thiazol-2-ylcarbonyl)-N-[1-({3-[4-(trifluoromethyl)phenyl]-1H-indol-6-yl}carbonyl)azetidin-3-yl]pyrrolidin-3-amine], in experiment [1], the IC50 was found to be 22.2 nM. Besides, the “Rat Brain 2AG % VehCntrl (%) @1 μM” value in experiment [2] is 195%.

For `O=C(c1ccc2c(-c3cccc(C(F)(F)F)c3)c[nH]c2c1)N1CC(N[C@H]2CCN(C(=O)c3cscn3)C2)C1` [Cpd 106, (3S)-1-(1,3-Thiazol-4-ylcarbonyl)-N-[1-({3-[3-(trifluoromethyl)phenyl]-1H-indol-6-yl}carbonyl)azetidin-3-yl]pyrrolidin-3-amine], in experiment [1], the IC50 is under 5 nM. The “Rat Brain 2AG % VehCntrl (%) @1 μM” value in experiment [2] was 389%.

Take `O=C(c1ccc(-c2cccc(C(F)(F)F)c2)cc1)N1CC(N[C@H]2CCN(C(=O)c3nccs3)C2)C1` [Cpd 113, (3S)-1-(1,3-Thiazol-2-ylcarbonyl)-N-(1-{[3′-(trifluoromethyl)biphenyl-4-yl]carbonyl}azetidin-3-yl)pyrrolidin-3-amine]: in experiment [1], the IC50 was under 5 nM. Besides, the “Rat Brain 2AG % VehCntrl (%) @1 μM” value in experiment [2] is 832%.

With `O=C(c1ccc(-c2ccc(C(F)(F)F)cc2)cc1)N1CC(N[C@H]2CCN(C(=O)c3nccs3)C2)C1` [Cpd 115, (3S)-1-(1,3-Thiazol-2-ylcarbonyl)-N-(1-{[4′-(trifluoromethyl)biphenyl-4-yl]carbonyl}azetidin-3-yl)pyrrolidin-3-amine], the IC50 in experiment [1] was 10 nM. In experiment [2], the “Rat Brain 2AG % VehCntrl (%) @1 μM” value is given as 310%.

In the case of `O=C(c1nccs1)N1CC[C@H](NC2CN(C(=O)c3ccc(-c4cccc(C(F)(F)F)c4)cc3F)C2)C1` [Cpd 116, (3S)-N-(1-{[3-Fluoro-3′-(trifluoromethyl)biphenyl-4-yl]carbonyl}azetidin-3-yl)-1-(1,3-thiazol-2-ylcarbonyl)pyrrolidin-3-amine], the IC50 in experiment [1] is under 5 nM. In addition, the “Rat Brain 2AG % VehCntrl (%) @1 μM” value in experiment [2] turned out to be 733%.

Turning to `Cc1cc(-c2cccc(C(F)(F)F)c2)ccc1C(=O)N1CC(N[C@H]2CCN(C(=O)c3nccs3)C2)C1` [Cpd 117, (3S)-N-(1-{[3-Methyl-3′-(trifluoromethyl)biphenyl-4-yl]carbonyl}azetidin-3-yl)-1-(1,3-thiazol-2-ylcarbonyl)pyrrolidin-3-amine], the IC50 in experiment [1] is under 5 nM. Moreover, the “Rat Brain 2AG % VehCntrl (%) @1 μM” value in experiment [2] was determined as 400%.

Consider `O=C(c1ccc2c(ccn2-c2ccc(C(F)(F)F)cc2)c1)N1CC(N[C@H]2CCN(C(=O)c3nccs3)C2)C1` [Cpd 118, (3S)-1-(1,3-Thiazol-2-ylcarbonyl)-N-[1-({1-[4-(trifluoromethyl)phenyl]-1H-indol-5-yl}carbonyl)azetidin-3-yl]pyrrolidin-3-amine], for which the IC50 in experiment [1] is under 5 nM. In addition, in experiment [2], the “Rat Brain 2AG % VehCntrl (%) @1 μM” value turned out to be 626%.

Regarding `O=C(c1ccc2c(ccn2-c2ncccn2)c1)N1CC(N[C@H]2CCN(C(=O)c3nccs3)C2)C1` [Cpd 119, (3S)-N-{1-[(1-Pyrimidin-2-yl-1H-indol-5-yl)carbonyl]azetidin-3-yl}-1-(1,3-thiazol-2-ylcarbonyl)pyrrolidin-3-amine], the IC50 in experiment [1] worked out at 48.8 nM. Also, the “Rat Brain 2AG % VehCntrl (%) @1 μM” value in experiment [2] is on record as 255%.

In the case of `O=C(c1ccccc1)N1CC[C@H](NC2CN(C(=O)c3cc4cc(-c5ccc(Cl)s5)ccc4o3)C2)C1` [Cpd 122, (3S)-N-(1-{[5-(5-Chlorothiophen-2-yl)-1-benzofuran-2-yl]carbonyl}azetidin-3-yl)-1-(phenylcarbonyl)pyrrolidin-3-amine], the IC50 in experiment [1] was 59.7 nM. Moreover, the “Rat Brain 2AG % VehCntrl (%) @1 μM” value in experiment [2] was determined as 152%.

Turning to `Cc1c(C(=O)N2CC(N[C@H]3CCN(C(=O)c4cscn4)C3)C2)sc2ccc(-c3ccccc3)cc12` [Cpd 123, (3S)-N-{1-[(3-Methyl-5-phenyl-1-benzothiophen-2-yl)carbonyl]azetidin-3-yl}-1-(1,3-thiazol-4-ylcarbonyl)pyrrolidin-3-amine], the IC50 in experiment [1] was under 5 nM. Further, the “Rat Brain 2AG % VehCntrl (%) @1 μM” value in experiment [2] amounted to 661%.

As to `O=C(c1cscn1)N1CC[C@H](NC2CN(C(=O)c3cc4ccc(-c5ccccc5)cc4s3)C2)C1` [Cpd 124, (3S)-N-{1-[(6-Phenyl-1-benzothiophen-2-yl)carbonyl]azetidin-3-yl}-1-(1,3-thiazol-4-ylcarbonyl)pyrrolidin-3-amine], the IC50 in experiment [1] was determined as 6 nM. In addition, the “Rat Brain 2AG % VehCntrl (%) @1 μM” value in experiment [2] is recorded as 227%.

On to `O=C(c1ccc(Cc2cccc(C(F)(F)F)c2)cc1)N1CC(N[C@H]2CCN(C(=O)c3ccccc3)C2)C1` [Cpd 126, (3S)-1-(Phenylcarbonyl)-N-[1-({4-[3-(trifluoromethyl)benzyl]phenyl}carbonyl)azetidin-3-yl]pyrrolidin-3-amine], for which the IC50 in experiment [1] was under 5 nM. The “Rat Brain 2AG % VehCntrl (%) @1 μM” value in experiment [2] is recorded as 715%.

The IC50 is the point on the concentration scale where inhibition reaches its midpoint.
